Results as given in patent publication US12286429B2, “5-oxo-1,2,3,5,8,8a-hexahydroindolizine-3-carboxamide derivatives useful as a factor XIa inhibitors” (Janssen Pharmaceutica NV, priority 2021, dated 2025).

Experiments:
Factor XIa = Factor XIa (Homo sapiens, UniProt P03951); test: Factor XIa inhibition assay utilizing a fluorophore-quencher pair peptide substrate (FLINT); format: biochemical; conditions: 11-point, 3-fold serial dilution, top 100 nM; 30 min preincubation; 15 μM 5Fam-KLTRAETV-K5Tamra substrate; kinetic reads over 30 min; read-out: FXIa Inhibition IC50
Source text: Biological Example 1: Factor XIa Inhibition Assay Utilizing a Fluorophore-Quencher Pair Peptide Substrate
A fluorescence intensity (FLINT) based assay was used to monitor inhibition of Factor XIa. The peptide substrate, 5Fam-KLTRAETV-K5Tamra (purchased from New England Peptide) was chosen based on the FXI sequence. Conversion of zymogen FXI to its activated form, FXIa, occurs by proteolytic cleavage by […] at two sites, Arg146 and Arg180. The custom peptide used in this assay was based on the Arg146 cleavage site of FXI. The peptide substrate was designed with a fluorophore-quencher pair, where the fluorescence is quenched until FXIa cleaves the 8-mer peptide after the Arg residue.
The Factor XIa FLINT assay was used with the following 5Fam-KLTRAETV-K5Tamra assay buffer: 50 mM Tris, pH 7.5, 100 mM NaCl, 5 mM CaCl2, 0.1 mg/mL BSA, 0.03% CHAPS. Assay buffer was prepared by mixing all ingredients fresh. 5Fam-KLTRAETV-K5Tamra peptide substrate was first prepared at 10 mM in 100% DMSO, then diluted to 3 mM in 100% DMSO. Assay buffer was then added directly to the 3 mM stock of substrate to prepare the 30 μM 2× working concentration (15 μM final concentration). The 2× Factor XIa stock solution was prepared by diluting 6.562 μM stock in 1× assay buffer for a […].
Test compound(s) were run in an 11-point, 3-fold serial dilution with a final top compound concentration of 100 nM. Final DMSO in assay was 2%. FXIa was preincubated with compound for 30-minutes and then substrate was added to initiate the reaction. The assay was run with kinetic (KIN) reads at 5 min intervals over 30 minutes. […] More specifically, the assay was run as follows: • 100 nL of 0.01 mM test compound was dispensed into black 384-well non-binding Greiner BioOne 784900 plate for 0.1 μM final concentration, • 5 μL of 1× assay buffer was dispensed to column 24 (low control) and 5 μL 2× Factor XIa solution was dispensed to columns 1-23 (column 23 high control); • the plate was centrifuged with a “cover” plate at 500 rpm for 1 min • the plate was pre-incubated for 30 minutes at room temperature with plate covered; • 5 μL of 2×5Fam-KLTRAETV-K5Tamra peptide substrate was dispensed into the entire plate, columns 1-24; • the plate was centrifuged with a “cover” plate at 500 rpm for 1 min; • the plate was read monitoring fluorescence intensity on the BMG PHERAStar at room temperature, using fluorescence module 485 nm/520 nm.
(§1) Percent inhibition (IC50) curves were generated per compound tested, and data was analyzed using a 4-parameter logistic fit using GeneData Screener. The relative fluorescence unit (RFU) values were normalized to percent inhibition using the following equation: % inhibition=((HC−LC)−(compound−LC)/(HC−LC))*100
where LC—low control=mean signal of no Factor XIa or 100% inhibition of Factor XIa; HC—high control=mean signal of Factor XIa+5Fam-KLTRAETV-K5Tamra peptide substrate with DMSO only.
(§2) An 11-point dose response curve for the test compound(s) was generated using GENDATA to determine IC50 value based on the following equation: Y=Bottom+(Top−Bottom)/(1+10^((log IC50−X)*HillSlope))
(§3) where Y is the % inhibition in the presence of X inhibitor concentration, Top=high control=mean signal of Factor XIa+5Fam-KLTRAETV-K5Tamra peptide substrate with DMSO only; Bottom=low control—mean signal of no Factor XIa or 100% inhibition of Factor XIa; HillSlope—Hill coefficient; and IC50=concentration of compound with 50% inhibition in relation to top/high control.

human plasma kallikrein = human plasma kallikrein (Homo sapiens, UniProt P03952); test: Kallikrein inhibition assay utilizing a quenched AMC peptide substrate (FLINT); format: biochemical; conditions: 11-point, 3-fold serial dilution, top 1 μM; 30 min preincubation; 2 nM kallikrein; 50 μM Z-Gly-Pro-Arg-AMC; kinetic reads over 30 min
Procedure: Biological Example 2: Kallikrein Inhibition Assay Utilizing a Quenched AMC Peptide Substrate
A fluorescence intensity (FLINT) based assay was used to monitor inhibition of human plasma kallikrein. The peptide substrate, Z-Gly-Pro-Arg-AMC (Purchased from Bachem; Catalog #I-1150) was chosen based on its relatively low KM for kallikrein which enables running the assay at lower substrate concentrations to control background fluorescence. The kinetic parameters for this substrate were determined by fitting titration data to the Michaelis-Menten equation yielding a KM=40 μM, kcat=0.76 s^−1, and kcat/KM=18932 M^−1s^−1.
The Kallikrein FLINT assay was used with the following Z-Gly-Pro-Arg-AMC assay buffer: 50 mM Tris, pH 7.5, 100 mM NaCl, 5 mM CaCl2, 0.1 mg/mL BSA, 0.03% CHAPS. Assay buffer was prepared by mixing all ingredients fresh. 2× Z-Gly-Pro-Arg-AMC peptide substrate was prepared by diluting 10 mM stock into 1× assay buffer for a 100 μM working concentration (50 μM final concentration). The 2× kallikrein stock solution was prepared by diluting 14.76 μM stock in 1× assay buffer for a 4 nM working stock solution (2 nM final concentration).
Test compound(s) were run in an 11-point, 3-fold serial dilution with a final top compound concentration of 1 μM. Final DMSO in assay was 2%. Plasma kallikrein was pre-incubated for 30-minute with compound and then 50 μM substrate was added to initiate the reaction. The assay was run with kinetic (KIN) reads at 5 min intervals over 30 minutes. The time course was linear using 2 nM kallikrein greater than 30 minutes. More specifically, the assay was run as follows: • 100 nL of 0.1 mM test compound was dispensed into black 384-well non-binding Greiner BioOne 784900 plate for 1 μM final concentration; • 5 μL of 1× assay buffer was dispensed to columns 24 (low control) and 5 μL 2× human kallikrein enzyme solution was dispensed to columns 1-23 (column 23 high control); • the plate was centrifuged with a “cover” plate at 500 rpm for 1 min • the plate was pre-incubated for 30 minutes at room temperature with plate covered; • 5 μL of 2× Z-Gly-Pro-Arg-AMC peptide substrate was dispensed into the entire plate, columns 1-24; • the plate was centrifuged with a “cover” plate at 500 rpm for 1 min; • the plate was read monitoring fluorescence intensity on the BMG PHERAStar at room temperature, using fluorescence module 340 nm/440 nm.
as §1
where LC—low control=mean signal of […] 100% inhibition of human kallikrein enzyme; HC—high control=mean signal of […]+Z-Gly-Pro-Arg-AMC peptide substrate with DMSO only.
as §2
as §3, with “human kallikrein enzyme+Z-Gly-Pro-Arg-AMC” for “Factor XIa+5Fam-KLTRAETV-K5Tamra”, “human kallikrein enzyme” for “Factor XIa”, “human kallikrein enzyme;” for “Factor XIa;”

Factor XIa, sequence (P03951 388-625 limits assumed): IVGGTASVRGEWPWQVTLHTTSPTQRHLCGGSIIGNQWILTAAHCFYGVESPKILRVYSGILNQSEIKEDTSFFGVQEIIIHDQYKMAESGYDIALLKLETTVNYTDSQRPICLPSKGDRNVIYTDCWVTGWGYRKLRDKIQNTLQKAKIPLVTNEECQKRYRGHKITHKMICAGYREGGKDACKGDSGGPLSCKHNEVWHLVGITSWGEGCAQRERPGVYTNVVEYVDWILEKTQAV
Factor XIa, sequence (P03951 19-387 partner limits assumed): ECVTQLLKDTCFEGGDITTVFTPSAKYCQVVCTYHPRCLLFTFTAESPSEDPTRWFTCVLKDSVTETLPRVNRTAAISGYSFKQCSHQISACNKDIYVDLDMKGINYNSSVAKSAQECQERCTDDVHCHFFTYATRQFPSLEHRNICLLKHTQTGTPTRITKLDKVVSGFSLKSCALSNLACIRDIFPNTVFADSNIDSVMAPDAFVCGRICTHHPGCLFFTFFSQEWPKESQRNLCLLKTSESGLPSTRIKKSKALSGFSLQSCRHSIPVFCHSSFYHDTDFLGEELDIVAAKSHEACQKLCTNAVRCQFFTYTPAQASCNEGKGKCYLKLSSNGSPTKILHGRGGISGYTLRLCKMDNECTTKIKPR
human plasma kallikrein, sequence (P03952 391-638 limits assumed): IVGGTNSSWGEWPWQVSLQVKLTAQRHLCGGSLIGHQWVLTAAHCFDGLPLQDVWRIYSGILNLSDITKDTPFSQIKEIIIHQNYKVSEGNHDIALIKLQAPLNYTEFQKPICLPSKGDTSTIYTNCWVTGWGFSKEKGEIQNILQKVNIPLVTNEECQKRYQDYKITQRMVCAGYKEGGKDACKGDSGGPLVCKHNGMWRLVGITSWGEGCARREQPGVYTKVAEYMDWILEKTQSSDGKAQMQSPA
human plasma kallikrein, sequence (P03952 20-390 partner limits assumed): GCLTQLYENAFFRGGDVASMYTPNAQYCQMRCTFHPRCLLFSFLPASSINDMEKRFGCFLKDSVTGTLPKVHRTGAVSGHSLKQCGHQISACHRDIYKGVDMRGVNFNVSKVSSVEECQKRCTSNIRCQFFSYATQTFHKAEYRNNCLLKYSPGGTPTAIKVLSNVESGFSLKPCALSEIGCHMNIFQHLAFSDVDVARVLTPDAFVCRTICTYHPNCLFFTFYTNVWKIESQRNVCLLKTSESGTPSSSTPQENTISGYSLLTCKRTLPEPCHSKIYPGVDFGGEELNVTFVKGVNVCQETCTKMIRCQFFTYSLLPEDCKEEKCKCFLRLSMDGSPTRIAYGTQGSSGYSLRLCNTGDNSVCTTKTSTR

| Structure (SMILES) | IC50 (Factor XIa) [nM] | IC50 (human plasma kallikrein) [nM] |
| --- | --- | --- |
| CO[C@@H]1C[C@@H](C(=O)Nc2ccc3nccnc3c2)N2C(=O)C=C(c3c(-n4cnnn4)ccc(Cl)c3F)CC12 (mixture of isomers) [ID No. 46, (1R,3S)-7-[3-Chloro-2-fluoro-6-(tetrazol-1-yl)phenyl]-1-methoxy-5-oxo-N-quinoxalin-6-yl-2,3,8,8a-tetrahydro-1H-indolizine-3-carboxamide] | 5.3 | 12.3 |
| O=C(Nc1ccc(-c2nc(=O)o[nH]2)cc1F)[C@@H]1CCC2CC(c3c(-n4cnnn4)ccc(Cl)c3F)=CC(=O)N21 (mixture of isomers) [ID No. 47, (3S)-7-(3-Chloro-2-fluoro-6-(1H-tetrazol-1-yl)phenyl)-N-(2-fluoro-4-(5-oxo-2,5-dihydro-1,2,4-oxadiazol-3-yl)phenyl)-5-oxo-1,2,3,5,8,8a-hexahydroindolizine-3-carboxamide] | 23.3 | 274 |
| O=C(Nc1ccc(-n2ccnn2)cc1)[C@@H]1CCC2CC(c3c(-n4cnnn4)ccc(Cl)c3F)=CC(=O)N21 (mixture of isomers) [ID No. 48, (3S)—N-(4-(1H-1,2,3-triazol-1-yl)phenyl)-7-(3-chloro-2-fluoro-6-(1H-tetrazol-1-yl)phenyl)-5-oxo-1,2,3,5,8,8a-hexahydroindolizine-3-carboxamide] | 21.4 | 86.3 |
| O=C(Nc1ccc(-n2nccn2)cc1)[C@@H]1CCC2CC(c3c(-n4cnnn4)ccc(Cl)c3F)=CC(=O)N21 (mixture of isomers) [ID No. 49, (3S)—N-(4-(2H-1,2,3-triazol-2-yl)phenyl)-7-(3-chloro-2-fluoro-6-(1H-tetrazol-1-yl)phenyl)-5-oxo-1,2,3,5,8,8a-hexahydroindolizine-3-carboxamide] | 30.5 | 54.2 |
| O=C(Nc1ccc2nc[nH]c2c1)[C@@H]1CCC2CC(c3c(-n4cnnn4)ccc(Cl)c3F)=CC(=O)N21 (mixture of isomers) [ID No. 53, (3S)—N-(1H-benzo[d]imidazol-6-yl)-7-(3-chloro-2-fluoro-6-(1H-tetrazol-1-yl)phenyl)-5-oxo-1,2,3,5,8,8a-hexahydroindolizine-3-carboxamide] | 11.1 | 56.2 |
| O=C(Nc1ccc2ncoc2c1)[C@@H]1CCC2CC(c3c(-n4cnnn4)ccc(Cl)c3F)=CC(=O)N21 (mixture of isomers) [ID No. 54, (3S)—N-(Benzo[d]oxazol-6-yl)-7-(3-chloro-2-fluoro-6-(1H-tetrazol-1-yl)phenyl)-5-oxo-1,2,3,5,8,8a-hexahydroindolizine-3-carboxamide] | 11.5 | 59 |
| O=C(Nc1ccc2ncsc2c1)[C@@H]1CCC2CC(c3c(-n4cnnn4)ccc(Cl)c3F)=CC(=O)N21 (mixture of isomers) [ID No. 55, (3S)—N-(Benzo[d]thiazol-6-yl)-7-(3-chloro-2-fluoro-6-(1H-tetrazol-1-yl)phenyl)-5-oxo-1,2,3,5,8,8a-hexahydroindolizine-3-carboxamide] | 6.6 | 27.7 |
| O=C(Nc1ccc2n[nH]nc2c1)[C@@H]1CCC2CC(c3c(-n4cnnn4)ccc(Cl)c3F)=CC(=O)N21 (mixture of isomers) [ID No. 56, (3S)—N-(2H-benzo[d][1,2,3]triazol-5-yl)-7-(3-chloro-2-fluoro-6-(1H-tetrazol-1-yl)phenyl)-5-oxo-1,2,3,5,8,8a-hexahydroindolizine-3-carboxamide] | 5.4 | 19 |

The remaining lines, values ahead:

| IC50 (Factor XIa) [nM] | IC50 (human plasma kallikrein) [nM] | Structure (SMILES) |
| --- | --- | --- |
| 16.7 | 36.1 | O=C(Nc1ccc2[nH]nc(O)c2c1)[C@@H]1CCC2CC(c3c(-n4cnnn4)ccc(Cl)c3F)=CC(=O)N21 (mixture of isomers) [ID No. 57, (3S)-7-[3-Chloro-2-fluoro-6-(tetrazol-1-yl)phenyl]-N-(3-hydroxy-1H-indazol-5-yl)-5-oxo-2,3,8,8a-tetrahydro-1H-indolizine-3-carboxamide] |
| 1.2 | 107 | O=C(O)c1ccc(NC(=O)[C@@H]2CCC3CC(c4c(-n5cnnn5)ccc(Cl)c4F)=CC(=O)N32)cc1F (mixture of isomers) [ID No. 58, 4-[[(3S)-7-[3-Chloro-2-fluoro-6-(tetrazol-1-yl)phenyl]-5-oxo-2,3,8,8a-tetrahydro-1H-indolizine-3-carbonyl]amino]-2-fluoro-benzoic acid] |
| 3 | 9.5 | O=C(Nc1ccc2[nH]c(=O)cc(O)c2c1)[C@@H]1CCC2CC(c3c(-n4cnnn4)ccc(Cl)c3F)=CC(=O)N21 (mixture of isomers) [ID No. 64, (3S)-7-[3-Chloro-2-fluoro-6-(tetrazol-1-yl)phenyl]-N-(4-hydroxy-2-oxo-1H-quinolin-6-yl)-5-oxo-2,3,8,8a-tetrahydro-1H-indolizine-3-carboxamide] |
| 1.7 | 47.1 | O=C(Nc1ccc(-c2cnn[nH]2)cc1)[C@@H]1CCC2CC(c3c(-n4cnnn4)ccc(Cl)c3F)=CC(=O)N21 (mixture of isomers) [ID No. 68, (3S)-7-[3-Chloro-2-fluoro-6-(tetrazol-1-yl)phenyl]-5-oxo-N-[4-(1H-triazol-5-yl)phenyl]-2,3,8,8a-tetrahydro-1H-indolizine-3-carboxamide] |
| 7.3 | 52.3 | O=C(Nc1ccc(-c2nc[nH]n2)cc1)[C@@H]1CCC2CC(c3c(-n4cnnn4)ccc(Cl)c3F)=CC(=O)N21 (mixture of isomers) [ID No. 69, (3S)-7-[3-Chloro-2-fluoro-6-(tetrazol-1-yl)phenyl]-5-oxo-N-[4-(1H-1,2,4-triazol-3-yl)phenyl]-2,3,8,8a-tetrahydro-1H-indolizine-3-carboxamide] |
